Earlier results in patent publication US20230172854A1 (UNIWERSYTET HUMANISTYCZNO-PRZYRODNICZY IM JANA DLUGOSZA W …, priority 2020, published 2023).

Conditions: estimated

CCCCC(=O)N(Cc1ccc(-c2ccccc2-c2nnn[nH]2)cc1)[C@H](C(=O)O)C(C)C [valsartan]
bioavailability: 25%
